Results on nine molecules are retold here after patent publication US5091311A, “The production of KSB-1939 macrolides using STR eptomyces hygroscopicus” (Kumiai Chemical Industry Co., Ltd., priority 1987, dated 1992).

Data set [1] has as its system Ancylostoma caninum. Description: Test 8 test against dog nematodes (Ancylostoma caninum). The data set is classed as in vivo, Ancylostoma caninum (in dogs). The note with it: dogs, once. On the procedure: (§1) Test 8 (Test against Dog Nematodes) A test was conducted using dogs which had been infected naturally with Ancylostoma caninum or Toxocara canis. Namely, using 8 hybrid dogs of 2 months old, KSB-1939H2 according to this invention was administered subcutaneously at a dosage of 0.1 mg/kg-body weight or orally at a dosage of 0.5 mg/kg-body weight. Administration was effected only once. Evaluation was conducted by comparing the number of eggs contained in feces excreted from each dog before the treatment with that of eggs contained in feces excreted from the dog after the treatment.

For data set [2], the system named is microfilariae of Dirofilaria immitis. Description: microbe, parasite or virus in culture. The note with it: 240 h, read-out: LD50.
The test system of data set [3] is Twospotted Spider Mite. Description: Test 1 miticidal test against adult female twospotted spider mite. In kind it is in vivo, Teranychus urticae Koch. Conditions: Tetranychus urticae, 48 h, 2 days after treatment, read-out: Corrected mite mortality. An excerpt: Test 1 (Miticidal Test against Adult Female Twospotted Spider Mite)
(§2) Each of polyethylene-made cups having a diameter of 55 mm and filled with water was covered with a lid through which a hole having a diameter of 10 mm was formed centrally. Absorbent cotton was suspended through the hole of the lid so as to absorb water. A sheet of filter paper was placed on the lid. Two bean leaf disks were place don the filter paper so that the disks were always supplied with water. Using a writing brush, adult female two spotted spider mites were inoculated at a rate of 10 mites per leaf disk. Twenty-four hours later, abnormal mites were removed, and wettable powders which had been prepared in accordance with the procedures of Preparation Examples 4-6 respectively were separately diluted to a predetermined concentration and sprayed to apply 2 mg/cm^2 of the respective agrochemical solutions. The test was conducted dually. Two days after the treatment with the agrochmical solutions, it was determined through a stereoscopic microscope whether the mites were alive or dead. The corrected mite mortality was calculated in accordance with the following equation. [formula]

Data set [4] is described as follows: Test 11 acute toxicity test (oral), mouse. The note with it: in vivo, male. More on the design: species or system mouse (B6 C3 F1). An excerpt:
(§3) Test 11 (Acute Toxicity Test)
(§4) The acute toxicity (oral) of one of the compounds of this invention was investigated using rats (male and female, F344, 7 weeks old) and mice (male and female, B6 C3 F1, 7 weeks old).

Data set [5] is described as follows: Test 11 acute toxicity test (oral), rat. Further details: species or system rat (F344). Conditions: in vivo, male.
Source text: as §3, §4

The test system of data set [6] is Kanzawa spider mite. Kind of data set: Test 2 LC50 against Kanzawa spider mite. In kind it is in vivo, Tetranychus kanzawai Kishida. The note with it: 48 h; for LC50: Tetranychus kanzawai, following procedure of Test 1.
Source text: as §2
(§5) Following the procedure of Test 1, tests were conducted with respect to Kanzawa spider mite and twospotted spider mite so that their LC50 values were determined. Milbemycin was used as a control.

A short description of data set [7]: Distinction of basic, acidic or neutral. The data set is classed as physicochemical.
The subject of data set [8] is Asiatic Rice Borer. Kind of data set: Test 5 insecticidal test against Asiatic rice borer. The data set is classed as in vivo, Chilo suppressalis Walker. The note with it: Chilo suppressalis, 120 h, 3rd-instar larvae, 5 days, 25° C. On the procedure:
(§6) Test 5 (Insecticidal Test against Asiatic Rice Borer) Wettable powders which had been prepared following the procedures of Preparation Examples 4-6 respectively were diluted with water to a predetermined concentration. Sprouted unhulled rice seeds were dipped in the resultant solutions and then dried in the air. They were placed separately in polyethylene-made cups having a diameter of 55 mm. Ten 3rd-instar larvae of asiatic rice borer were placed in each cup. The larvae were reared for 5 days in a constant-temperature chamber of 25° C. The test was conducted dually. The numbers of dead larvae were counted after the rearing, whereby mortality values of asiatic rice borer were calculated.

Data set [9] concerns Brown Rice Planthopper. Kind of data set: Test 3 insecticidal test against brown rice planthopper. In kind it is in vivo, Nilaparvata lugens Stal. Conditions: 120 h, larvae, 5 days, 25° C. On the procedure:
Test 3 (Insecticidal Test against Brown Rice Planthopper) Wettable powders which had been prepared following the procedures of Preparation Examples 4-6 respectively were diluted with water to a predetermined concentration. Rice stems and leaves were dipped in the resultant solutions and then dried in the air. They were placed in test tubes. Ten brown rice planthopper larvae were placed in each test tube. The test tubes were plugged with absorbent cotton and the larvae were reared for 5 days in a constant-temperature chamber of 25° C. The test was conducted dually. The numbers of larvae were counted after the rearing, whereby mortality values of brown rice planthopper were calculated.

Data set [10] concerns Toxocara cati. Description: Test 9 test against cat nematode. In kind it is in vivo, Toxocara cati (in cats). Conditions: cats. On the procedure:
Test 9 (Test against Cat Nematode) A test was conducted using cats which had been infected naturally with Toxocara cati. Namely, 4 hybrid cats infected with the nematode were administered with KSB-1939H2 of this invention at a dosage of 0.05 mg/kg-body weight in the case of subcutaneous administration or at a dosage of 0.1 mg/kg-body weight in the case of oral administration. Evaluation was conducted by comparing the number of eggs contained in feces excreted from each cat before the treatment with that of eggs contained in feces excreted from the cat after the treatment.

Data set [11] concerns Twospotted Spider Mite. Description: Test 2 LC50 against twospotted spider mite. The data set is classed as in vivo, Teranychus urticae Koch. The note with it: 48 h; for LC50: Tetranychus urticae, following procedure of Test 1.
Source text: as §2, §5

Data set [12] is described as follows: Solubility. The note with it: for Solubility in organic solvents: methanol, acetone, ethyl acetate, chloroform and hexane. The data set is classed as physicochemical.
The test system of data set [13] is Toxocara canis. Kind of data set: Test 8 test against dog nematodes (Toxocara canis). In kind it is in vivo, Toxocara canis (in dogs). Conditions: dogs, once. On the procedure: as §1
The subject of data set [14] is Diamondback Moth. Description: Test 4 insecticidal test against diamondback moth. In kind it is in vivo. The note with it: Plutella xylostella, 120 h, 3rd-instar larvae, 5 days, 25° C. On the procedure: Test 4 (Insecticidal Test against Diamondback Moth)
as §6, with “Wettable” for “Test 5 (Insecticidal Test against Asiatic Rice Borer) Wettable”, “Cabbage leaves” for “Sprouted unhulled rice seeds”, “placed” for “placed separately”, “polyethylene-madecups” for “polyethylene-made cups”, “diamondback moth” for “asiatic rice borer”

For data set [15], the system named is Haemonchus concurtus. Description: Test 10 test against sheep nematode. The data set is classed as in vivo, Haemonchus concurtus (in sheep). The note with it: oral drench into rumen, once. On the procedure:
Test 10 (Test against Sheep Nematode) A test was conducted using sheep which had been infected with Haemonchus concurtus. Namely, KSB-1939H4 of this invention was formulated into oral drenches. Four sheep which had been infected artificially with Haemonchus concurtus were administered with the compound by injecting the oral drenches into their rumens respectively. They were treated only once by a single dosage of 0.5 mg/kg-body weight or 1.0 mg/kg-body weight. Evaluation was conducted by comparing the number of eggs contained in feces excreted from each sheep before the treatment with that of eggs contained in feces excreted from the sheep after the treatment.

Values after ≈ are worked out from the molar mass of the structure shown.

A word on the mortality: it is the share of the test organisms that died. For orientation: LD50 means the dose expected to kill half of the subjects tested. A high value points to lower toxicity. For `CC(C)=CC(=O)OCC1=CC2C(=O)OC3CC(CC=C(C)CC(C)C=CC=C4COC(C1O)C42O)OC1(CCC(C)C(C)O1)C3` (stereo not shown) [KSB-1939H2], the “activities (eggs in feces before and after treatment)” value (“activities” below) in [1] (oral 0.5 mg/kg), in [1] (subcutaneous 0.1 mg/kg), in data set [10] (oral 0.1 mg/kg), in data set [10] (subcutaneous 0.05 mg/kg), in data set [13] (oral 0.5 mg/kg) and in [13] (subcutaneous 0.1 mg/kg) was 100% in each case. Further, the values for the LC50 in data set [2], in [6] and in data set [11] were 3.4 µg/mL (≈ 5.42 µM), 0.0465 µg/mL (≈ 0.0742 µM) and 0.0249 µg/mL (≈ 0.0397 µM), respectively. In data set [3] (0.004 ppm), the mortality at 0.004 ppm came out at 70.1%. In addition, the mortality at 0.2 ppm in data set [3] stood at 100%; in data set [8], 90%. Also, the mortality at 1 ppm in data set [3] was 100%; in data set [8], 100%; in data set [9], 95%. Further, the LD50 in [4] and in data set [5] was over 5000 mg/kg in each case. For the same molecule, the “Distinction of basic, acidic or neutral” value in [7] is “Neutral”. This molecule displayed a mortality at 5 ppm in data set [9] of 100%. In addition, in [12], the “Solubility in organic solvents” value was “Soluble”. In addition, the Solubility in water result in data set [12] is listed as “Insoluble”.

For `CC1=CCC2CC(CC3(CCC(C)C(C)O3)O2)OC(=O)C2C=C(COC(=O)CC(C)C)C(O)C3OCC(=CC=CC(C)C1)C23O` (stereo not shown) [KSB-1939H3], the LC50 in data set [2] came out at 1.5 µg/mL (≈ 2.39 µM). Besides, in data set [3], the mortality at 0.2 ppm is 100%, the mortality at 1 ppm was 100% and the mortality at 5 ppm is 100%. The molecule also came in with an LD50 in data set [4] of over 5000 mg/kg. In data set [14], this molecule showed a mortality at 25 ppm of 100%. The “Distinction of basic, acidic or neutral” value in data set [7] is listed as “Neutral”. In data set [9], this molecule gave a mortality at 5 ppm of 65% and a mortality at 25 ppm of 100%. In addition, in data set [12], the “Solubility in organic solvents” value is listed as “Soluble” and the Solubility in water result is recorded as “Insoluble”.

Take `CCC(C)=CC(=O)OCC1=CC2C(=O)OC3CC(CC=C(C)CC(C)C=CC=C4COC(C1O)C42O)OC1(CCC(C)C(C)O1)C3` (stereo not shown) [KSB-1939H4]: in data set [2], the LC50 came out at 3.3 µg/mL (≈ 5.15 µM). In addition, the “activities” value in data set [15] (0.5 mg/kg) was 80-90%. The “activities” value in [15] (1.0 mg/kg) is reported as 100%. In addition, in data set [3], the mortality at 0.04 ppm was 94.2%, the mortality at 0.2 ppm is 100% and the mortality at 1 ppm came to 100%. Also, the “Distinction of basic, acidic or neutral” value in data set [7] is “Neutral”. In data set [8], this molecule registered a mortality at 0.2 ppm of 90% and a mortality at 1 ppm of 100%. In [9], the mortality at 1 ppm is 65% and the mortality at 5 ppm worked out at 100%. Besides, in data set [12], the “Solubility in organic solvents” value is “Soluble” and the Solubility in water result is given as “Insoluble”.

For `CC1=CCC2CC(CC3(CCC(C)C(C)O3)O2)OC(=O)C2C=C(COC(=O)CCC(C)C)C(O)C3OCC(=CC=CC(C)C1)C23O` (stereo not shown) [KSB-1939H5], in [2], the LC50 came out at 1.6 µg/mL (≈ 2.49 µM). Further, in [3], the mortality at 1 ppm was found to be 100% and the mortality at 5 ppm was found to be 100%. This molecule showed a mortality at 25 ppm in [14] of 100%. Also, the “Distinction of basic, acidic or neutral” value in data set [7] is given as “Neutral”. In data set [8], this molecule showed a mortality at 0.2 ppm of 90% and a mortality at 1 ppm of 100%. Moreover, the mortality at 25 ppm in [9] was determined as 95%. In data set [12], the “Solubility in organic solvents” value is reported as “Soluble” and the Solubility in water entry is given as “Insoluble”.

With `CC1=CCC2CC(CC3(CCC(C)C(C)O3)O2)OC(=O)C2C=C(COC(=O)C(C)C)C(O)C3OCC(=CC=CC(C)C1)C23O` (stereo not drawn) [KSB-1939L3α], the “Distinction of basic, acidic or neutral” value in data set [7] is “Neutral”. Further, in [12], the “Solubility in organic solvents” value is recorded as “Soluble” and the Solubility in water entry was “Insoluble”.

As for `CCCC(=O)OCC1=CC2C(=O)OC3CC(CC=C(C)CC(C)C=CC=C4COC(C1O)C42O)OC1(CCC(C)C(C)O1)C3` (stereo not drawn) [KSB-1939L3β], the “Distinction of basic, acidic or neutral” value in [7] is “Neutral”. In data set [12], the “Solubility in organic solvents” value was “Soluble” and the Solubility in water result is on record as “Insoluble”.

Turning to `CCC1OC2(CCC1C)CC1CC(CC=C(C)CC(C)C=CC=C3COC4C(O)C(COC(=O)C=C(C)C)=CC(C(=O)O1)C34O)O2` (stereo not shown) [KSB-1939S5], the LC50 in data set [2] is 3.5 µg/mL (≈ 5.46 µM). Further, in data set [3], the mortality at 0.04 ppm worked out at 45.7%, the mortality at 0.2 ppm came out at 100% and the mortality at 1 ppm was 100%. This molecule showed an LD50 in data set [4] of over 5000 mg/kg. The molecule also returned an LC50 in data set [6] of 0.0643 µg/mL (≈ 0.1 µM). For the same molecule, the “Distinction of basic, acidic or neutral” value in data set [7] is on record as “Neutral”. In addition, in data set [9], the mortality at 1 ppm came to 85% and the mortality at 5 ppm was found to be 100%. In [11], this molecule gave an LC50 of 0.0339 µg/mL (≈ 0.0529 µM). Further, in [12], the “Solubility in organic solvents” value is “Soluble” and the Solubility in water result is “Insoluble”.

Turning to `CC1=C[C@H]2C(=O)O[C@H]3C[C@@H](C/C=C(\C)C[C@@H](C)/C=C/C=C4\CO[C@H]([C@@H]1O)[C@@]42O)O[C@@]1(CC[C@H](C)[C@@H](C(C)C)O1)C3` [Milbemycin D, reference compound], the LC50 in data set [2] was 7.5 µg/mL (≈ 13.5 µM).

With Milbemycin [reference compound], the “LC50 Kanzawa spider mite” value in data set [6] (kanzawa spider mite, in vivo) was 0.485 ppm. Further, in data set [11] (twospotted spider mite, in vivo), the “LC50 Twospotted spider mite” value worked out at 0.339 ppm.
